Measurements: patent publication US6960586B2, “Imidazole derivatives, process for their preparation and their use” (Takeda Pharmaceutical Company Limited, priority 2000, dated 2005)

What was measured:
[1] = system: testosterone synthesis; experiment: Assay of inhibitory activity on testosterone synthesis in rats; format: in vivo, rat; conditions: 25 mg/kg orally, male SD rats, serum testosterone two hours after administration, relative to control group
Method: Assay of Inhibitory Activity on Testosterone Synthesis in Rats
Test compounds (25 mg/kg) were orally administered to 9-week-old male SD (Sprague Dawley) rats. Two hours after administration of the compounds, blood was drawn and testosterone concentration in the obtained serum was measured by radioimmunoassay. The percentage (T/C, %) of the testosterone concentration of test compounds administration group to that of the control group was calculated, and taken as the inhibitory activity on testosterone synthesis.

[2] = molecular target: T1, Rat Steroid C17,20-lyase (Rattus norvegicus, UniProt P11715); experiment: Assay of inhibitory activity on rat steroid C17,20-lyase (testis microsomes); format: biochemical; conditions: 10 nM [1,2-3H]-17α-hydroxyprogesterone, 37° C., 7 minutes
T1 construct: Testes were excised from 10- to 13-week-old male SD rats, homogenized, and centrifuged to give microsomes; from tissue; host or cells: testis microsomes of male SD rats
T1 sequence (P11715 1-507): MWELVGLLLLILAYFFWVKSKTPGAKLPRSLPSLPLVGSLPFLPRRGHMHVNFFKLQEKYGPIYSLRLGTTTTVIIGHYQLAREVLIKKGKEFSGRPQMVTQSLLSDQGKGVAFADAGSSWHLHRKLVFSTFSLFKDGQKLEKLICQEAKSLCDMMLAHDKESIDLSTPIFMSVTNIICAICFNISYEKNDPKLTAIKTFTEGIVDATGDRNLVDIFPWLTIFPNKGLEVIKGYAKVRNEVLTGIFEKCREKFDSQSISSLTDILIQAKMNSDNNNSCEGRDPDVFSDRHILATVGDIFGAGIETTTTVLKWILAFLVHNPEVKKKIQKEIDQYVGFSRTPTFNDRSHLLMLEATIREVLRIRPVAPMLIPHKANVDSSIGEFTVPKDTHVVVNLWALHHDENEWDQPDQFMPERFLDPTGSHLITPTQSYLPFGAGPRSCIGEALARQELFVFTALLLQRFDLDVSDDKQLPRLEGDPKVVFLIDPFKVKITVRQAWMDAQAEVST
Method: Assay of Inhibitory Activity on Rat Steroid C17,20-lyase
The activity was determined according to The Prostate, vol. 26, 140-150 (1995).
Testes were excised from 10- to 13-week-old male SD rats, homogenized, and centrifuged to give microsomes. [1,2-^3H]-17α-hydroxyprogesterone having a final concentration of 10 nM, NADPH solution and test compounds were dissolved in 10 μl of 100 mM phosphate buffer (pH 7.4) and microsome protein (7 μg/10 μl) was added. The reaction mixture was incubated at 37° C. for 7 minutes. Ethyl acetate (40 μl) was added and the mixture was centrifuged. The substrate and the products (androstenedione and testosterone) in the supernatant were separated by silica gel thin layer chromatography (TLC). The spots were detected and quantitatively determined by BAS 2000 Bioimage analyzer. The concentration of the test compounds necessary to reduce the amount of the products by 50% (IC50) relative to the amount of the products without test compound (control) as 100% was calculated, and shown in Table 1.

[3] = molecular target: T2, human CYP3A4 (Homo sapiens, UniProt P08684); experiment: Assay of human CYP3A4-inhibitory activity; format: in vitro ADME; conditions: testosterone 100 μM as substrate, 6β-hydroxytestosterone formation, 37° C., 30 min
T2 construct: purchased GENTEST
T2 sequence (P08684 whole entry): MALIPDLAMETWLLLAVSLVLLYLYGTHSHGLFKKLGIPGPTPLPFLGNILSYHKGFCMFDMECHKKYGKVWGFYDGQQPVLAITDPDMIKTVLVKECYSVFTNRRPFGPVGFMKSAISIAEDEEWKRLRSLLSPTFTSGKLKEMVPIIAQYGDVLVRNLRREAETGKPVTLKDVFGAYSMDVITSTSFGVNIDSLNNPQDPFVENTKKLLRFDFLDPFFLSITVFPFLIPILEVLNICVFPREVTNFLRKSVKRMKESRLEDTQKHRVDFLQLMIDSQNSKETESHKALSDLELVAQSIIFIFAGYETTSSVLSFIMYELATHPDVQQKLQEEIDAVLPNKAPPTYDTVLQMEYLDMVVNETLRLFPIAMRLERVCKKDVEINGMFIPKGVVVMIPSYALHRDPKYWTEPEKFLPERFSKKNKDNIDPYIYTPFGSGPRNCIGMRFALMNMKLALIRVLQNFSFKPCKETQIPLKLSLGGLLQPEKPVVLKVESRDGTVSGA
Method: Assay of Human CYP3A4-Inhibitory Activity
Performed as in the following according to Journal of Biological Chemistry, vol. 256, 11937 (1983).
A phosphate buffer solution (50 mM, pH 7.4) containing testosterone (final concentration 100 μM, hereinafter the same), human CYP3A4 (10 pmol/ml, manufactured by GENTEST), NADPH producing system (0.5 mM NADP, 5 mM glucose-6-phosphate, 5 mM magnesium chloride, 1.5 units/ml glucose-6-phosphate dehydrogenase) and the test compound was incubated at 37° C. for 30 min. Acetonitrile was added to the reaction mixture and the mixture was stirred and centrifuged. The 6β-hydroxytestosterone in the obtained supernatant was analyzed by high performance liquid chromatography. The concentration (IC50) of the compound necessary for 50% inhibition was calculated taking the production amount without addition of the test compound as 100%.

SMILES	Testosterone synthesis inhibitory activity (T/C, %) [1]	IC50 [2]	IC50 [3]
CC(C)C(O)(c1ccc2c3c(ccc2c1)C(=O)N(C)C3)c1c[nH]cn1 (single isomer, unassigned; (-)) [Example 16, (−)-7-[1-hydroxy-1-(1H-imidazol-4-yl)-2-methylpropyl]-2-methyl-1,2-dihydro-3H-benzo[e]isoindol-3-one]	4.3%	–	–
CC(C)C(O)(c1ccc2c3c(ccc2c1)C(=O)NC3)c1c[nH]cn1 (stereo not shown) [Example 1, 7-[1-hydroxy-1-(1H-imidazol-4-yl)-2-methylpropyl]-1,2-dihydro-3H-benzo[e]isoindol-3-one]	6.0%	< 10 nM	–
CC(C)C(O)(c1ccc2c3c(ccc2c1)C(=O)N(C)C3)c1c[nH]cn1 (stereo not shown) [Example 2, 7-[1-hydroxy-1-(1H-imidazol-4-yl)-2-methylpropyl]-2-methyl-1,2-dihydro-3H-benzo[e]isoindol-3-one]	–	15 nM	> 10000 nM
CCN1Cc2c(ccc3cc(C(O)(c4c[nH]cn4)C(C)C)ccc23)C1=O (stereo not shown) [Example 3, 2-ethyl-7-[1-hydroxy-1-(1H-imidazol-4-yl)-2-methylpropyl]-1,2-dihydro-3-benzo[e]isoindol-3-one]	–	23 nM	> 10000 nM
CC(C)C(O)(c1ccc2cc3c(cc2c1)CNC3=O)c1c[nH]cn1 (stereo not shown) [Example 10, 6-[1-hydroxy-1-(1H-imidazol-4-yl)-2-methylpropyl]-2,3-dihydro-1H-benzo[f]isoindol-1-one]	–	42 nM	> 10000 nM
CC(C)CC(O)(c1ccc2c3c(ccc2c1)C(=O)N(C)C3)c1c[nH]cn1 (stereo not shown) [Example 14, 7-[1-hydroxy-1-(1H-imidazol-4-yl)-3-methylbutyl]-2-methyl-1,2-dihydro-3H-benzo[e]isoindol-3-one]	–	22 nM	–
